{"source": "patent US6417235B2", "about": "“Method and use of α-amino-β-mercapto-ethane derivatives as dicarbonyl scavengers for treatment of conditions resulting from protein, lipid, and DNA damage” (University of Kentucky Research Foundation, priority 2000, dated 2002)", "key": {"[1]": {"test_system": "HaCat cells", "assay": "Protection of keratinocytes from alpha-dicarbonyl stress (cell count after 72 hour exposure)", "type": "cell-based, human", "conditions": "FIG. 14", "procedure": "(§1) A continuous cell line of human epidermal keratinocytes (HaCat cells) and human dermal fibroblasts (CF-3 cells) were routinely cultured in 75 cm^2 flasks and split biweekly in DMEM containing 10% fetal bovine serum and kept in a humidified atmosphere containing 5% CO2 at 37° C. Human keratinocytes were split using 5% trypsin and human fibroblasts employed 1% trypsin. All experiments were carried out on 6 well dishes (Falcon USA), where keratinocytes were seeded at 2×10^4 cells/well and fibroblasts at 4×10^4 cells/well. Cells were left overnight to attach to the plate and the appropriate carbonyl scavenger was then added 15 minutes prior to the addition of the alpha-dicarbonyl stress compounds glyoxal or methylglyoxal. Following 72 hour exposure to the stress compound, cells were counted with a Coulter counter. the protective effects of the alpha-dicarbonyl scavengers were assessed by comparing the growth of untreated cells with cells exposed to alpha-carbonyl stress +/− test compound."}, "[2]": {"test_system": "CF-3 cells", "assay": "Protection of fibroblasts from alpha-dicarbonyl stress (cell count after 72 hour exposure)", "type": "cell-based, human", "conditions": "FIG. 14", "procedure": "as §1"}, "[3]": {"test_system": "glycation of histone H1 by ADP-ribose", "assay": "Screening of inhibitors of nonoxidative advanced glycation: AGE-fluorescence on 96 well-microtiter plate", "type": "biochemical, calf", "conditions": "(± SEM, n = 2); for AGE-fluorescence (day 5): complete reaction under air", "procedure": "All operations were carried out at 4° C. Chromatin was isolated from fresh calf thymus by extraction with 0.14 M NaCl, 0.05 M Na2S2O5, as described earlier in Wondrak supra. After repeated extraction with 5% HCl)4 and centrifugation (1500 g), histone H1 was precipitated from the supernatant by addition of TCA (20% final concentration v/v). The histone H1 precipitate was colleted by centrifugation (12,000 g) and deionized water. After extensive dialysis (MW cut-off: 12,000-14,000) against water for 48 h, the sample was lyophilized and the protein was stored at 4° C. SDS-PAGE (12%) was used to analyze the purity of the preparation.\nEarlier studies have reported that D-penicillamine inhibits collagen crosslinking and AGE fluorescence caused by sugars (McPherson, J. D., Shilton, B. H., and Walton, D. J. 1988. Role of Fructose in Glycation and Cross-Linking of Proteins. Biochemistry 27, 1901-1907) and reaction of D-penicillamine with aldehyde groups of proteins (Deshmukh, K., and Nimm, M. E. 1969. A Defect in the Intramolecular and Intermolecular Cross-linking of Collagen caused by Penicillamine. J. Biol. Chem. 244, 1787-1795). A number of different penicillamines and penicillamine derivatives were tested to determine the inhibition of AGE-fluorescence on histone H1 at physiological pH. The reaction conditions for the glycation of histone H1 by ADP-ribose mimic physiological conditions to the extent possible. Reaction mixtures contain 1.5 mg/ml histone Hl, 1.0 mM ADP-ribose, 50 mM potassium phosphate buffer, pH 7.4, 37° C. D,L-penicillamine; L-penicillamine; D-penicllamine; D-penicillaminedisulfide and N,S- isopropylidine-D-penicillamine were tested in concentrations of 1,5 and 10 mM. The detected reaction parameter representing the accumulation of protein damage is AGE-fluorescence ((λex=[…]), which is suppressed by the presence of a compound with inhibitory activity. Generation of AGE-type fluorescence (λex=355 nm; λem=405 nm) was monitored over time at 37° C; which is in the range of the broad excitation/emission maxima of AGE compounds. To allow high throughput sample processing on 96 well microtiter plates, the reaction volumes are 300 μl. Fluorescence on the 96-well microtiter plates was measured using an automated microtiter fluorescence reader. Fluorescence of the 1 ml samples of the glycation reaction mixtures was measured using a Hitachi F-200 fluorescence spectophotometer, and prior to measurement the protein sample is dialyzed extensively against water (MW cutoff=[…]), lyophilized and reconstituted in reaction buffer. For inhibitor screening the plate is read on a Fluoroskan II plate reader (Titertek, ICN) at the excitation/emission wavelengths set forth above at a bandwidth of 35 nm.\nThe following screening scheme is used (see Table 1): AGE-fluorescence is determined at the beginning and after five days of incubation. Test compounds that are inherently fluorescent (designated false negatives) were identified by the initial fluorescence measurement (See Table 1, NADH for example). Since these are compounds of uncertain activity, they are diverted directly to the second stage of the screen. Aminoguanidine, a known glycation inhibitory agent, was used as a positive control for suppression of the increase on AGE-fluorescence. After five days incubation and plate reading, fluorescence quenchers (designated false positives) are excluded by measuring the quenching activity of the test compound by addition of AGE modified protein having known fluorescence activity to one microtiter plate well containing test compound in the complete reaction mixture. For this, AGE-BSA is used as the AGE-type fluorescence standard. This AGE-BSA test excludes false positives compounds that function by fluorescence quenching. If fluorescence quenching occurs the test compound is excluded from further screening. […] The protein is visualized by silver staining of the gel. […]"}, "[4]": {"test_system": "histone H1", "assay": "Histone H1 crosslinking by 12% SDS-PAGE with silver staining", "type": "biochemical, calf", "conditions": "5 mM; histone H1, ADP-ribose reaction system", "procedure": "The following screening scheme is used (see Table 1): AGE-fluorescence is determined at the beginning and after five days of incubation. Test compounds that are inherently fluorescent (designated false negatives) were identified by the initial fluorescence measurement (See Table 1, NADH for example). Since these are compounds of uncertain activity, they are diverted directly to the second stage of the screen. Aminoguanidine, a known glycation inhibitory agent, was used as a positive control for suppression of the increase on AGE-fluorescence. After five days incubation and plate reading, fluorescence quenchers (designated false positives) are excluded by measuring the quenching activity of the test compound by addition of AGE modified protein having known fluorescence activity to one microtiter plate well containing test compound in the complete reaction mixture. For this, AGE-BSA is used as the AGE-type fluorescence standard. This AGE-BSA test excludes false positives compounds that function by fluorescence quenching. If fluorescence quenching occurs the test compound is excluded from further screening. […] The protein is visualized by silver staining of the gel. […] A compound that passes the first and second stage of the screen is considered a glycation inhibitor and is further evaluated for biological activity as described below. […]"}}, "data": [{"smiles": "N=C(N)NN", "note": "[Aminoguanidine]", "values": [{"measurement": "protection from alpha-dicarbonyl stress", "setting": "[1]", "value": "protection"}, {"measurement": "protection from alpha-dicarbonyl stress", "setting": "[2]", "value": "protection"}, {"measurement": "AGE-fluorescence (day 0)", "setting": "[3]; compound 1 mM", "value": "1.2 (0.1) relative units"}, {"measurement": "AGE-fluorescence (day 5)", "setting": "[3]; compound 1 mM", "value": "4.3 (0.2) relative units"}, {"measurement": "AGE-fluorescence (day 0)", "setting": "[3]; compound 5 mM", "value": "1.2 (0.1) relative units"}, {"measurement": "AGE-fluorescence (day 5)", "setting": "[3]; compound 5 mM", "value": "2.0 (0.0) relative units"}, {"measurement": "AGE-fluorescence (day 0)", "setting": "[3]; compound 10 mM", "value": "1.3 (0.1) relative units"}, {"measurement": "AGE-fluorescence (day 5)", "setting": "[3]; compound 10 mM", "value": "1.8 (0.0) relative units"}, {"measurement": "inhibition of histone H1 crosslinking", "setting": "[4]", "value": "inhibit histone H1 crosslinking"}]}]}
